Test results reported in patent EP2987533B1, “7-substituted piperazin-1-yl fluoroquinolone compounds, their use in the treatment of cancer, pharmaceutical compositions and a method for preparation” (priority 2014, dated 2016).
Like-named read-outs stand apart in the source and are kept apart here.

Legend:
MALME-3M = test: NCI one-dose SRB growth assay; format: cell-based; conditions: Homo sapiens; MALME-3M (Melanoma), 10^-5 M, 48 h; read-out: % Growth Inhibition (GI %)
Procedure, shortened: (§1)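 Screening used the NCI Drug Evaluation Branch protocol on roughly 60 human cancer cell lines. Compound exposure: 10^-5M, 48 h. Cell mass quantified by sulforhodamine B binding, read by spectrophotometer, reported as % growth compared with untreated control.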

COLO 205 = test: NCI one-dose SRB growth assay; format: cell-based; conditions: Homo sapiens; COLO 205 (Colon Cancer), 10^-5 M, 48 h; read-out: % Growth Inhibition (GI %)
Procedure, shortened: as §1

NCI/ADR-RES = test: NCI one-dose SRB growth assay; format: cell-based; conditions: Homo sapiens; NCI/ADR-RES (Ovarian Cancer), 10^-5 M, 48 h; read-out: % Growth Inhibition (GI %)
Procedure, shortened: as §1

SNB-75 = test: NCI one-dose SRB growth assay; format: cell-based; conditions: Homo sapiens; SNB-75 (CNS Cancer), 10^-5 M, 48 h; read-out: % Growth Inhibition (GI %)
Procedure, shortened: as §1

PRMI-8226 = test: NCI one-dose SRB growth assay; format: cell-based; conditions: Homo sapiens; PRMI-8226 (Leukemia), 10^-5 M, 48 h; read-out: % Growth Inhibition (GI %)
Procedure, shortened: as §1

M14 = test: NCI one-dose SRB growth assay; format: cell-based; conditions: Homo sapiens; M14 (Melanoma), 10^-5 M, 48 h; read-out: % Growth Inhibition (GI %)
Procedure, shortened: as §1

K-562 [1] = test: NCI one-dose SRB growth assay; format: cell-based; conditions: Homo sapiens, K562; K-562 (Leukemia), 10^-5 M, 48 h; read-out: % Growth Inhibition (GI %)
Procedure, shortened: as §1

KM12 = test: NCI one-dose SRB growth assay; format: cell-based; conditions: Homo sapiens; KM12 (Colon Cancer), 10^-5 M, 48 h; read-out: % Growth Inhibition (GI %)
Procedure, shortened: as §1

RXF 393 = test: NCI one-dose SRB growth assay; format: cell-based; conditions: Homo sapiens; RXF 393 (Renal Cancer), 10^-5 M, 48 h; read-out: % Growth Inhibition (GI %)
Procedure, shortened: as §1

MCF7 = test: NCI one-dose SRB growth assay; format: cell-based; conditions: Homo sapiens; MCF7 (Breast Cancer), 10^-5 M, 48 h; read-out: % Growth Inhibition (GI %)
Procedure, shortened: as §1

UACC-257 = test: NCI one-dose SRB growth assay; format: cell-based; conditions: Homo sapiens; UACC-257 (Melanoma), 10^-5 M, 48 h; read-out: % Growth Inhibition (GI %)
Procedure, shortened: as §1

CCRF-CEM = test: NCI one-dose SRB growth assay; format: cell-based; conditions: Homo sapiens; CCRF-CEM (Leukemia), 10^-5 M, 48 h; read-out: % Growth Inhibition (GI %)
A498 = test: NCI one-dose SRB growth assay; format: cell-based; conditions: Homo sapiens; A498 (Renal Cancer), 10^-5 M, 48 h; read-out: % Growth Inhibition (GI %)
Procedure, shortened: as §1

HOP-92 = test: NCI one-dose SRB growth assay; format: cell-based; conditions: Homo sapiens; HOP-92 (Non-Small Cell Lung Cancer), 10^-5 M, 48 h; read-out: % Growth Inhibition (GI %)
Procedure, shortened: as §1

colon cancer = test: NCI five-dose SRB assay, subpanel average; conditions: 48 h; for GI50 / CC50: Homo sapiens; for GI50: read-out: GI50 (median growth inhibitory); for CC50: read-out: LC50 (median lethal); for TGI (total growth inhibitory): average over colon cancer subpanel, five concentrations
ovarian cancer = test: NCI five-dose SRB assay, subpanel average; conditions: 48 h; for GI50 / CC50: Homo sapiens; for GI50: read-out: GI50 (median growth inhibitory); for CC50: read-out: LC50 (median lethal); for TGI (total growth inhibitory): average over ovarian cancer subpanel, five concentrations
[2] = test system: full panel of about 60 human tumor cell lines; test: NCI five-dose SRB assay, full panel mean; conditions: 48 h; for GI50 / CC50: Homo sapiens; for GI50: read-out: GI50 MG-MID (Full panel mean-graph midpoint); for CC50: read-out: LC50 MG-MID (Full panel mean-graph midpoint); for TGI MG-MID (Full panel mean-graph midpoint): five concentrations
IGROV1 = test: NCI five-dose SRB growth assay; format: cell-based; conditions: Homo sapiens, IGROV-1; IGROV1 (Ovarian Cancer), 48 h
MOLT-4 = test: NCI five-dose SRB growth assay; format: cell-based; conditions: Homo sapiens; MOLT-4 (Leukemia), 48 h
SK-MEL-28 = test: NCI five-dose SRB growth assay; format: cell-based; conditions: Homo sapiens; SK-MEL-28 (Melanoma), 48 h
HS 578T = test: NCI five-dose SRB growth assay; format: cell-based; conditions: Homo sapiens; HS 578T (Breast Cancer), 48 h
ACHN = test: NCI five-dose SRB growth assay; format: cell-based; conditions: Homo sapiens; ACHN (Renal Cancer), 48 h
OVCAR-4 = test: NCI five-dose SRB growth assay; format: cell-based; conditions: Homo sapiens; OVCAR-4 (Ovarian Cancer), 48 h
U251 = test: NCI five-dose SRB growth assay; format: cell-based; conditions: Homo sapiens, U-251; U251 (CNS Cancer), 48 h
K-562 [3] = test: NCI five-dose SRB growth assay; format: cell-based; conditions: Homo sapiens, K562; K-562 (Leukemia), 48 h
SN12C = test: NCI five-dose SRB growth assay; format: cell-based; conditions: Homo sapiens; SN12C (Renal Cancer), 48 h
TK-10 = test: NCI five-dose SRB growth assay; format: cell-based; conditions: Homo sapiens; TK-10 (Renal Cancer), 48 h
DU-145 = test: NCI five-dose SRB growth assay; format: cell-based; conditions: Homo sapiens; DU-145 (Prostate Cancer), 48 h

SMILES	inhibition at 10 µM (MALME-3M)	inhibition at 10 µM (COLO 205)	inhibition at 10 µM (NCI/ADR-RES)	inhibition at 10 µM (SNB-75)	inhibition at 10 µM (PRMI-8226)	inhibition at 10 µM (M14)	inhibition at 10 µM (K-562 [1])	inhibition at 10 µM (KM12)	inhibition at 10 µM (RXF 393)	inhibition at 10 µM (MCF7)	inhibition at 10 µM (UACC-257)	inhibition at 10 µM (CCRF-CEM)	inhibition at 10 µM (A498)	inhibition at 10 µM (HOP-92)	GI50 (colon cancer)	CC50 (colon cancer)	TGI (total growth inhibitory) (colon cancer)	GI50 (ovarian cancer)	CC50 (ovarian cancer)	TGI (total growth inhibitory) (ovarian cancer)	other results
CCn1cc(C(=O)O)c(=O)c2cc(F)c(N3CCN(S(=O)(=O)c4c(C)cc(C)cc4C)CC3)cc21 [Compound 6a]	< 10%	< 10%	15.2%	29.2%	35.9%	24.4%	20.1%	12.8%	11.1%	< 10%	< 10%	18.2%	21.1%	12.6%	–	–	–	–	–	–	–
O=c1[nH]cc(F)c(=O)[nH]1 [Compound 5-FU, 5-fluorouracil, reference compound]	58.2%	40.2%	47.6%	65.9%	41.4%	–	42.3%	40.7%	34.3%	11.5%	19.5%	57.1%	> 100%	50.6%	8.4 µM	> 100 µM	c (Compounds showed values > 100µM)	61.4 µM	> 100 µM	c (Compounds showed values > 100µM)	GI50 [2]: 22.6 µM; CC50 [2]: > 100 µM; TGI MG-MID (Full panel mean-graph midpoint) [2]: c (Compounds showed values > 100µM)
O=C(O)c1cn(C2CC2)c2cc(N3CCN(S(=O)(=O)c4ccc(Cl)c(Cl)c4)CC3)c(F)cc2c1=O [Compound 3b]	> 100%	> 100%	46.5%	86.8%	95.1%	81.5%	83.1%	85.4%	71%	86.5%	91.1%	83.1%	86.2%	87.8%	3.79 µM	> 100 µM	87.41 µM	3.39 µM	> 100 µM	88.90 µM	GI50 (IGROV1): 2.73 µM; GI50 (MOLT-4): 4 µM; GI50 (SK-MEL-28): 2.67 µM; GI50 (HS 578T): 4.26 µM; GI50 (ACHN): 3.1 µM; GI50 (OVCAR-4): 2.28 µM; GI50 (U251): 3.33 µM; GI50 (K-562 [3]): 3.92 µM; GI50 (SN12C): 2.97 µM; CC50 ([2]; 60 cell): 95.5 µM; GI50 [2]: 3.09 µM; TGI MG-MID (Full panel mean-graph midpoint) [2]: 60.25 µM; GI50 (TK-10): 4.31 µM; GI50 (DU-145): 4.31 µM
CCn1cc(C(=O)O)c(=O)c2cc(F)c(N3CCN(S(=O)(=O)c4ccc(Cl)cc4Cl)CC3)cc21 [Compound 2a]	> 100%	> 100%	90.7%	25.2%	90.9%	84.1%	89.1%	90.6%	72.1%	10.8%	> 100%	97.2%	> 100%	> 100%	3.15 µM	77.2 µM	72.89 µM	2.96 µM	76.7 µM	39.54 µM	GI50 (IGROV1): 2.33 µM; GI50 (MOLT-4): 3.55 µM; GI50 (SK-MEL-28): 3.21 µM; GI50 (HS 578T): 2.53 µM; GI50 (ACHN): 2.62 µM; GI50 (OVCAR-4): 2.58 µM; GI50 (U251): 3.3 µM; GI50 (K-562 [3]): 4 µM; GI50 (SN12C): 2.77 µM; CC50 ([2]; 60 cell): 57.5 µM; GI50 [2]: 2.63 µM; TGI MG-MID (Full panel mean-graph midpoint) [2]: 14.12 µM; GI50 (TK-10): 4.02 µM; GI50 (DU-145): 2.81 µM
O=C(O)c1cn(C2CC2)c2cc(N3CCN(S(=O)(=O)c4ccc(Cl)cc4Cl)CC3)c(F)cc2c1=O [Compound 2b]	< 10%	11.9%	< 10%	70.2%	21.3%	< 10%	< 10%	< 10%	67.7%	82.4%	< 10%	19%	23.6%	< 10%	–	–	–	–	–	–	–
